Literature values as cited in patent publication US20140005116A1, “KELOID TREATMENT” (ADE THERAPEUTICS INC., priority 2010, published 2014).
Peptide text beside a SMILES is read from it.

Conditions: heat sterilization and prolonged storage

stability during sterilization and prolonged storage	SMILES
sufficiently stable	C[C@H](N)C(=O)N[C@@H](CCC(N)=O)C(=O)O [alanyl-glutamine, L-alanyl-L-glutamine] (H-Ala-Gln-OH)
sufficiently stable	NCC(=O)N[C@@H](CCC(N)=O)C(=O)O [Glycyl-glutamine] (H-Gly-Gln-OH)
